The star is where a group is joined. Biotin = O=C1N[C@H]2[C@H](CS[C@H]2CCCCC(=O)*)N1; Ahx = NCCCCCC(=O)O
Key:
[1] = molecular target: T1, His 6-tagged human Akt1 (Homo sapiens, UniProt P31749); test: Crosslinking reactions with AKT1 (SDS-PAGE, streptavidin-HRP blot); assay type: biochemical; conditions: for crosslinking of peptide to AKT1 (formation of the peptide-AKT1 complex): peptide incubated with AKT1 in the presence of dialdehyde crosslinker 2, FIG. 2A
T1 construct: purchased Calbiochem
Description: His 6-tagged human Akt1 (10 ng), 1 μM peptide 3 or 4, and 20 µM crosslinker 2 were incubated in 30 μL of 25 mM HEPES (pH=7.5), 150 mM NaCl, 2 mM MgCl2, 20 μM BME for 20 min at rt. After 20 min, 6 μL of 6× loading buffer was added to quench the reactions. The sample mixtures (10 μL) were resolved by 8-16% SDS-PAGE, transferred to nitrocellulose, and the membrane was probed with streptavidin-HRP.
To evaluate dialdehyde 2 as a mechanism-based crosslinker, a set of peptide substrate derivatives with and without an engineered cysteine (biotin-ZRPRTSSF-OH 3, fluorescein-ZZRPRTSSF-OH 4, biotin-ZRPRTSCF-OH 5 and fluorescein-ZZRPRTSCF—OH 6) were incubated with the kinase, AKT1 (Alessi et al., FEBS Lett. 399: 333-338 (1996)). […] As expected, the peptide-AKT1 covalent complex runs at a slightly higher molecular weight than unmodified AKT1 on SDS-PAGE.

[2] = molecular target: T2, AKT kinase (Homo sapiens, UniProt P31749); test: Kinase cell lysate crosslinking (avidin-agarose pull-down, anti-AKT blot); assay type: biochemical; conditions: 100 ng AKT kinase, 2 μg HeLa cell lysate; for anti-AKT signal after avidin-agarose pull-down of the biotinylated substrate: 1 μM substrate, 100 μM crosslinker 2, 90 minutes
T2 construct: host or cells: added to HeLa cell lysate
T2 sequence (P31749 whole entry): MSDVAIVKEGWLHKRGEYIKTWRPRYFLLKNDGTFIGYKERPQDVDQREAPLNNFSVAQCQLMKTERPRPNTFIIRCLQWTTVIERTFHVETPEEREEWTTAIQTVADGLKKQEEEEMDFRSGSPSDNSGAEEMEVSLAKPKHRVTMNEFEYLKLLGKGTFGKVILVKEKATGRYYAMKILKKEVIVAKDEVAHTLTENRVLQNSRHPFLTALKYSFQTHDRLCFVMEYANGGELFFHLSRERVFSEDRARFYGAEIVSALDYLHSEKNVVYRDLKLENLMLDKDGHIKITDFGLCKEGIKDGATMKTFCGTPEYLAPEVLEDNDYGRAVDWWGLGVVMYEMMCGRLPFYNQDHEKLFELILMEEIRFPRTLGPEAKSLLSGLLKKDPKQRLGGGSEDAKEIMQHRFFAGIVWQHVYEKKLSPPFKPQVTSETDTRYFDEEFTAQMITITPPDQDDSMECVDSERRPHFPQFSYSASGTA
Description: Kinase cell lysate crosslinking details: 1 μM of Akt substrate (Biotin-PEG-RPRTSCF-OH) and 100 ng of AKT kinase was added to 2 μg of HeLa cell lysate. 100 μM of the crosslinker 2 was added to cell lysate and the reaction was allowed to proceed for 90 minutes. The lysate were poured over avidin-agarose beads and the beads were washed with wash buffer. The bound protein was eluted from the agarose beads with loading buffer and then subjected to SDS-PAGE. The gel was transferred to nitrocellulose and probed with anti-AKT. […] As a control, the non-cysteine containing AKT substrate (Biotin-PEG-RPRTSSF-OH) was used in the crosslinking reaction described above. No signal was observed.

T1 sequence (P31749 whole entry): as above

Compound	crosslinking of peptide to AKT1 (formation of the peptide-AKT1 complex) [1]	anti-AKT signal after avidin-agarose pull-down of the biotinylated substrate [2]	other results
{Biotin-Ahx}-RPRTSCF-OH [peptide 5]	rapid formation of the peptide-AKT1 complex was observed	–	–
Biotin-PEG-RPRTSSF-OH [reference compound]	–	No signal	–
Biotin-PEG-RPRTSCF-OH	–	positive signal	–
Fluorescein-Ahx-Ahx-Arg-Pro-Arg-Thr-Ser-Cys-Phe-OH ({fluorescein-Ahx-Ahx}-RPRTSCF-OH) [peptide 6]	identical results	–	–
Nc1ncnc2c1ncn2C1OC(COC(=O)c2ccc(C=O)c(C=O)c2)C(O)C1O (stereo not shown) [dialdehyde 2]	–	–	crosslinking of AKT1 and peptide by the crosslinker (formation of the peptide-AKT1 complex) ([1]; dialdehyde 2 incubated with cysteine-containing peptide 5 and AKT1, FIG. 2A lane 2): rapid formation of the peptide-AKT1 complex was observed; anti-AKT signal after crosslinking in cell lysate by the crosslinker ([2]; 100 μM crosslinker 2 with 1 μM Biotin-PEG-RPRTSCF-OH, 90 minutes): positive signal
{Biotin-Ahx}-RPRTSSF-OH [peptide 3, reference compound]	no detectable crosslinking	–	–

— patent US20080261821A1, “Mechanism-Based Crosslinkers” (THE REGENTS OF TE UNIVERSITY OF CALIFORNIA, priority 2004, published 2008)
